# Columns and labels:
# [1] = test system: Ixodes ricinus; experiment: In vitro contact test with adult hard ticks (Ixodes ricinus); details: read-out: acaricidal activity; for pest or weed control at 5 µg/cm2, 5 µg/cm2: dose 5 μg/cm^2, 48 h
# Description: (§1) In Vitro Contact Tests with Adult Hard Ticks
# (§2) In vitro contact tests with ticks were conducted with adult males and females of Rhipicephalus sanguineus, Ixodes ricinus, or Dermacentor variabilis, or nymphs of Amblyomma americanum.
# (§3) For the coating of the test vials, the test substance was dissolved and diluted in acetone p.a. to the desired concentration. The solution was then homogeneously applied to the inner wall and base of a glass vial by turning and rocking on an orbital shaker until complete evaporation of the solvent. For example, with a 900 ppm solution of test substance, an area-based dose of 5 μg/cm^2 was achieved.
# (§4) After the solvent was completely evaporated, 5-10 adult ticks were put in each coated test vial, which was then sealed with a perforated plastic lid and incubated in a horizontal position in the dark at room temperature and ambient humidity (Rhipicephalus sanguineus) or in a climate-controlled cabinet (Ixodes ricinus, Dermacentor variabilis, Amblyomma americanum [21° C., 85% rel. hum.]). Acaricidal activity against the respective tick species was determined after 48 h. For this, ticks were collected to the base of the test vial by gentle knocking, and test vials were then incubated on a hotplate at 45-50° C. for no longer than 5 min. Ticks which remained motionless on the base of the test vial or moved uncoordinated without deliberately climbing up to avoid the heat were considered dead or moribund, respectively.
# (§5) A substance was judged to have good acaricidal activity against the respective tick species when at least 80% of ticks were found dead or moribund at a dose of the substance of g/cm^2. An acaricidal activity of 100% means all ticks were dead or moribund. An acaricidal activity of 0% means none of the ticks was found dead or moribund.
# [2] = test system: Amblyomma americanum; experiment: In vitro contact test with hard ticks (Amblyomma americanum nymphs); details: read-out: acaricidal activity; for pest or weed control at 0.2 µg/cm2, 0.2 µg/cm2: dose 0.2 μg/cm^2, 48 h; for pest or weed control at 1 µg/cm2, 1 µg/cm2: dose 1 μg/cm^2, 48 h
# Description: as §1, §2, §3, §4, §5
# [3] = test system: Rhipicephalus sanguineus; experiment: In vitro contact test with adult hard ticks (Rhipicephalus sanguineus); details: read-out: acaricidal activity; for pest or weed control at 0.04 µg/cm2, 0.04 µg/cm2: dose 0.04 μg/cm^2, 48 h; for pest or weed control at 0.2 µg/cm2, 0.2 µg/cm2: dose 0.2 μg/cm^2, 48 h; for pest or weed control at 1 µg/cm2, 1 µg/cm2: dose 1 μg/cm^2, 48 h
# Description: as §1, §2, §3, §4, §5
# [4] = test system: Rhipicephalus (Boophilus) microplus; experiment: In vitro injection test with Rhipicephalus (Boophilus) microplus (BOOPMI Inj); details: 168 h, laid fertile eggs after 7 days, read-out: acaricidal activity; for pest or weed control at 32 ng: dose 0.032 μg/animal injected; for pest or weed control at 0.00016 mg: dose 0.16 μg/animal injected; for pest or weed control at 0.0008 mg: dose 0.8 μg/animal injected
# Description: In Vitro Injection Test with Rhipicephalus (Boophilus) Microplus (BOOPMI Inj)
# To produce an appropriate mixture for injection, the test substance was dissolved and diluted in dimethyl sulphoxide to the desired concentration. 1 μl of the test mixture was injected into the abdomen of each of 5 engorged adult female cattle ticks (Rhipicephalus (Boophilus) microplus). The ticks were transferred into petri dishes and maintained in a climate-controlled room [28° C., 85% rel. hum.].
# Acaricidal activity against cattle ticks was assessed after 7 days by assessment of laid fertile eggs. […] An acaricidal activity of 100% means that none of the ticks laid eggs or laid eggs were infertile; 0% means that the ticks laid eggs, and all the eggs were fertile.
# [5] = test system: Ctenocephalides felis; experiment: In vitro contact test with fleas; details: read-out: insecticidal activity; for pest or weed control at 0.04 µg/cm2, 0.04 µg/cm2: dose 0.04 μg/cm^2, dead or moribund fleas after 48 h; for pest or weed control at 0.2 µg/cm2, 0.2 µg/cm2: dose 0.2 μg/cm^2, dead or moribund fleas after 48 h; for pest or weed control at 1 µg/cm2, 1 µg/cm2: dose 1 μg/cm^2, dead or moribund fleas after 48 h
# Description: In Vitro Contact Tests with Fleas
# In vitro contact tests with fleas were conducted with adult male and female cat fleas (Ctenocephalides felis).
# as §3, with “To coat” for “For the coating of”, “tubes,” for “vials,”, “tube” for “vial”
# Upon complete evaporation of the solvent, 5-10 adult cat fleas (Ctenocephalides felis) were added to each coated tube, which was then sealed with a perforated plastic lid and incubated in a horizontal position at room temperature and ambient humidity. After 48 h, insecticidal activity against fleas was determined. For this, fleas were collected to the base of the tube by knocking the tube, and the tube was allowed to stand upright. Fleas which remained motionless at the base or moved in an uncoordinated manner were considered dead or moribund, respectively.
# A substance was judged to have good insecticidal activity against Ctenocephalides felis when at least 80% of the fleas were found dead or moribund at a dose of the substance of μg/cm^2. 100% insecticidal activity means that all the fleas were found dead or moribund. 0% insecticidal activity means that no fleas were found dead or moribund.
# [6] = test system: Ctenocephalides felis; experiment: Ctenocephalides felis in-vitro feeding test with fleas (CTECFE oral); details: 48 hours, read-out: insecticidal feeding activity; for pest or weed control at 0.16 ppm: dose 0.16 ppm in citrated cattle blood; for pest or weed control at 0.8 ppm: dose 0.8 ppm in citrated cattle blood; for pest or weed control at 4 ppm: dose 4 ppm in citrated cattle blood
# Description: Ctenocephalides felis In-Vitro Feeding Test with Fleas (CTECFE Oral)
# To prepare a test blood mixture for feeding fleas, the test substance was dissolved in dimethyl sulphoxide and diluted with citrated cattle blood to the desired concentration.
# To assemble the test set-up, about 20 unfed adult male and female cat fleas
# (Ctenocephalides felis) were placed in a chamber which was closed at the top and bottom with gauze. A metal cylinder was sealed at one end with parafilm membrane, placed with the sealed base onto the chamber, and filled with the test blood mixture, which could be imbibed by the fleas through the parafilm membrane. The assembled test set-up was maintained at about 37° C. After 48 hours, the insecticidal feeding activity against fleas was determined. 100% means that all of the fleas were killed; 0% means that none of the fleas was killed.
# [7] = test system: Dermacentor variabilis; experiment: In vitro contact test with adult hard ticks (Dermacentor variabilis); details: read-out: acaricidal activity; for pest or weed control at 0.2 µg/cm2, 0.2 µg/cm2: dose 0.2 μg/cm^2, 48 h; for pest or weed control at 1 µg/cm2, 1 µg/cm2: dose 1 μg/cm^2, 48 h
# Description: as §1, §2, §3, §4, §5
SMILES,"pest or weed control at 0.2 µg/cm2, 0.2 µg/cm2 ([1]; dose 0.2 μg/cm^2, 48 h) [%]","pest or weed control at 1 µg/cm2, 1 µg/cm2 ([1]; dose 1 μg/cm^2, 48 h) [%]","pest or weed control at 5 µg/cm2, 5 µg/cm2 [1] [%]","pest or weed control at 0.2 µg/cm2, 0.2 µg/cm2 [2] [%]","pest or weed control at 1 µg/cm2, 1 µg/cm2 [2] [%]","pest or weed control at 0.04 µg/cm2, 0.04 µg/cm2 [3] [%]","pest or weed control at 0.2 µg/cm2, 0.2 µg/cm2 [3] [%]","pest or weed control at 1 µg/cm2, 1 µg/cm2 [3] [%]",pest or weed control at 32 ng [4] [%],pest or weed control at 0.00016 mg [4] [%],pest or weed control at 0.0008 mg [4] [%],"pest or weed control at 0.04 µg/cm2, 0.04 µg/cm2 [5] [%]","pest or weed control at 0.2 µg/cm2, 0.2 µg/cm2 [5] [%]","pest or weed control at 1 µg/cm2, 1 µg/cm2 [5] [%]",pest or weed control at 0.0064 ppm ([6]; dose 0.0064 ppm in citrated cattle blood) [%],pest or weed control at 0.16 ppm [6] [%],pest or weed control at 0.8 ppm [6] [%],pest or weed control at 4 ppm [6] [%],"pest or weed control at 0.2 µg/cm2, 0.2 µg/cm2 [7] [%]","pest or weed control at 1 µg/cm2, 1 µg/cm2 [7] [%]"
O=C(Nc1cccc(C(=O)Nc2c(Br)cc(C(F)(C(F)(F)F)C(F)(F)C(F)(F)F)cc2C(F)(F)F)c1F)c1ccc(F)cc1 (stereo not shown) [Compound 36],90,90,90,90,90,90,90,90,100,100,100,95,95,95,95,95,95,95,90,90
O=C(Nc1cccc(C(=O)Nc2c(Br)cc(C(F)(C(F)(F)F)C(F)(F)F)cc2C(F)(F)F)c1F)c1ccc(F)cc1 [Compound 29],–,–,90,90,90,90,90,90,–,–,–,–,95,95,–,–,95,95,90,90
CN(C(=O)c1ccc(F)nc1)c1cccc(C(=O)Nc2c(Br)cc(C(F)(C(F)(F)F)C(F)(F)F)cc2C(F)(F)F)c1F [Compound 21],–,–,–,90,90,90,90,90,100,100,100,95,95,95,–,–,95,95,90,90
O=C(Nc1cccc(C(=O)Nc2c(I)cc(C(F)(C(F)(F)F)C(F)(F)F)cc2C(F)(F)F)c1F)c1ccc(Cl)cc1Cl [Compound 33],–,–,–,90,90,–,–,–,–,100,100,–,95,95,–,95,95,95,90,90

# From patent publication US11696913B2, “Prolonged ectoparasite-controlling agent for animal” (MITSUI CHEMICALS AGRO, INC., priority 2017, dated 2023)
